# Results reported in publication PMC8474115 (Journal of Medicinal Chemistry, 2021).
# Structures can show the parent of a compound that is named as a salt. Where two headings read alike, the source gives them in different places.
# Key:
# [1] = biological target: T1, Melanocortin MC4 (Homo sapiens, UniProt P32245); test: Eurofins SafetyScreen panel; format: binding
# T1 construct: purchased Eurofins (Panlabs) SafetyScreen87 Panel
# [2] = biological target: T2, Cathepsin G (Homo sapiens, UniProt P08311); test: Eurofins SafetyScreen panel; format: biochemical
# T2 construct: Eurofins
# [3] = biological target: T3, ACE (Oryctolagus cuniculus, UniProt P12822); test: Eurofins SafetyScreen panel; format: biochemical, rabbit
# T3 construct: Eurofins
# [4] = biological target: T4, Chemokine CCR1 (Homo sapiens, UniProt P32246); test: Eurofins SafetyScreen panel; format: binding
# T4 construct: purchased Eurofins (Panlabs) SafetyScreen87 Panel
# [5] = biological target: T5, Dopamine D1 (Homo sapiens, UniProt P21728); test: Eurofins SafetyScreen panel; format: binding
# T5 construct: purchased Eurofins (Panlabs) SafetyScreen87 Panel
# [6] = biological target: T6, Melanocortin MC1 (Homo sapiens, UniProt Q01726); test: Eurofins SafetyScreen panel; format: binding
# T6 construct: purchased Eurofins (Panlabs) SafetyScreen87 Panel
# [7] = biological target: CYP2D6 (Homo sapiens, UniProt P10635); test: Cytochrome P450 inhibition (Eurofins); conditions: at 10 μM; listed as 17, 10 µM
# [8] = biological target: T7, 5-HT2B receptors (Homo sapiens, UniProt P41595); test: Agonist effect at 5-HT2B receptors (HTRF, Eurofins); format: cell-based; conditions: 1 μM
# T7 construct: Eurofins, France
# Method: Experiment was performed in duplicate at Eurofins, France.
# [9] = biological target: Ca Channel L-Type, Benzothiazepine (Rattus norvegicus, UniProt P22002); test: Eurofins SafetyScreen panel; format: binding
# [10] = biological target: T8, Serotonin 5-HT5A (Homo sapiens, UniProt P47898); test: Eurofins SafetyScreen panel; format: binding
# T8 construct: Eurofins (contract assay) 272100
# [11] = biological target: T9, Potassium Channel [hERG] (Homo sapiens, UniProt Q12809); test: biochemical
# [12] = biological target: T10, Bradykinin B2 (Homo sapiens, UniProt P30411); test: Eurofins SafetyScreen panel; format: binding
# T10 construct: Eurofins (contract screening, SafetyScreen panel) PP223
# [13] = biological target: T11, Cannabinoid CB1 (Homo sapiens, UniProt P21554); test: Eurofins SafetyScreen panel; format: binding
# T11 construct: purchased Eurofins (Panlabs) SafetyScreen87 Panel
# [14] = biological target: T12, Adrenergic α2A (Homo sapiens, UniProt P08913); test: Eurofins SafetyScreen panel; format: binding
# T12 construct: Eurofins (contract screening, SafetyScreen panel) PP223
# T12 sequence (P08913 1-465): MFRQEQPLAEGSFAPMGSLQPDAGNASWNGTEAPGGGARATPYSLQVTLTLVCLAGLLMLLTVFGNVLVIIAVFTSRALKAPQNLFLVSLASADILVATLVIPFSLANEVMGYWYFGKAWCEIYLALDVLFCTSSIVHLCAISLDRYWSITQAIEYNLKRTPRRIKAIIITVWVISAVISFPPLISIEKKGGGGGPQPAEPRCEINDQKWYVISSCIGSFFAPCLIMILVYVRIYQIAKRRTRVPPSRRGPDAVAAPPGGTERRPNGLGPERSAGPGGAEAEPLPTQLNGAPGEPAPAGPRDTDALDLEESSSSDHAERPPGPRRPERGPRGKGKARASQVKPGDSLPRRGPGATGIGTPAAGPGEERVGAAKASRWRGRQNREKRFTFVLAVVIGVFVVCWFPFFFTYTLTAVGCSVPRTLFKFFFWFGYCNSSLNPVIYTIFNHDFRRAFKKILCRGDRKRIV
# [15] = biological target: T13, Opiate μ (OP3, MOP) (Homo sapiens, UniProt P35372); test: Eurofins SafetyScreen panel; format: binding
# T13 construct: Eurofins (contract assay)
# [16] = biological target: CYP3A4 (Homo sapiens, UniProt P08684); test: Cytochrome P450 inhibition (Eurofins)
# [17] = biological target: h5-HT1A (Homo sapiens, UniProt P08908); conditions: 5-HT1AR
# Method: For membrane preparation, cells after reaching 90% confluence, were washed with phosphate-buffered saline (PBS), and pelleted by centrifugation (200 × g) in PBS containing 0.1 mM EDTA and 1 mM dithiothreitol.
# The total reaction volume was 200 μL. The incubation process was terminated by filtration through UniFilter-96 (PerkinElmer) plates with the FilterMate Universal Harvester (PerkinElmer, #C961962), and radioactivity retained on the filters was quantified on a MicroBeta counter for radiometric detection (PerkinElmer). […] To evaluate the level of nonspecific signal 10 μM of 5-HT for 5-HT1AR and 5-HT7R, 20 μM of mianserin for 5-HT2AR, 10 μM of methiothepine for 5-HT6R and 10 μM of haloperidol for D2LR were used. […] The acquired results were presented as the mean of at least two independent experiments.
# [18] = biological target: T14, GABAB1A (Homo sapiens, UniProt Q9UBS5); test: Eurofins SafetyScreen panel; format: binding
# T14 construct: purchased Eurofins (Panlabs) SafetyScreen87 Panel
# [19] = biological target: CYP1A2 (Homo sapiens, UniProt P05177); test: Cytochrome P450 inhibition (Eurofins)
# [20] = biological target: T15, Norepinephrine Transporter (NET) (Homo sapiens, UniProt P23975); test: Eurofins SafetyScreen panel; format: binding
# T15 construct: Eurofins (contract screening, SafetyScreen panel) PP223
# [21] = biological target: T16, Serotonin Transporter (SERT) (Homo sapiens, UniProt P31645); test: Eurofins SafetyScreen panel; format: binding
# T16 construct: Eurofins (contract screening, SafetyScreen panel) PP223
# [22] = biological target: T17, Muscarinic M3 (Homo sapiens, UniProt P20309); test: Eurofins SafetyScreen panel; format: binding
# T17 construct: Eurofins (contract screening, SafetyScreen panel) PP223
# [23] = biological target: T9, Potassium Channel [hERG]; test: Eurofins SafetyScreen panel
# [24] = biological target: T18, Histamine H1 (Homo sapiens, UniProt P35367); test: Eurofins SafetyScreen panel; format: binding
# T18 construct: Eurofins (contract screening, SafetyScreen panel) PP223
# [25] = biological target: T19, GABA Transporter (Rattus norvegicus, UniProt P23978); test: Eurofins SafetyScreen panel; format: binding
# T19 construct: Eurofins (contract assay)
# [26] = biological target: T20, Opiate σ1 (OP1, DOP) (Homo sapiens, UniProt P41143); test: Eurofins SafetyScreen panel; format: binding; conditions: read-out: %inh
# T20 construct: Eurofins (contract assay)
# [27] = biological target: T21, Platelet Activating Factor (PAF) (Homo sapiens, UniProt P25105); test: Eurofins SafetyScreen panel; format: binding
# T21 construct: Eurofins (contract assay)
# [28] = biological target: T22, MAO-B (Homo sapiens, UniProt P27338); test: Eurofins SafetyScreen panel; format: biochemical
# T22 construct: Eurofins
# [29] = biological target: T23, Progesterone PR-B (Homo sapiens, UniProt P06401); test: Eurofins SafetyScreen panel; format: binding
# T23 construct: Eurofins (contract assay)
# [30] = read-out: %inh, 10 μM, additional batch
# T15 sequence (P23975 whole entry): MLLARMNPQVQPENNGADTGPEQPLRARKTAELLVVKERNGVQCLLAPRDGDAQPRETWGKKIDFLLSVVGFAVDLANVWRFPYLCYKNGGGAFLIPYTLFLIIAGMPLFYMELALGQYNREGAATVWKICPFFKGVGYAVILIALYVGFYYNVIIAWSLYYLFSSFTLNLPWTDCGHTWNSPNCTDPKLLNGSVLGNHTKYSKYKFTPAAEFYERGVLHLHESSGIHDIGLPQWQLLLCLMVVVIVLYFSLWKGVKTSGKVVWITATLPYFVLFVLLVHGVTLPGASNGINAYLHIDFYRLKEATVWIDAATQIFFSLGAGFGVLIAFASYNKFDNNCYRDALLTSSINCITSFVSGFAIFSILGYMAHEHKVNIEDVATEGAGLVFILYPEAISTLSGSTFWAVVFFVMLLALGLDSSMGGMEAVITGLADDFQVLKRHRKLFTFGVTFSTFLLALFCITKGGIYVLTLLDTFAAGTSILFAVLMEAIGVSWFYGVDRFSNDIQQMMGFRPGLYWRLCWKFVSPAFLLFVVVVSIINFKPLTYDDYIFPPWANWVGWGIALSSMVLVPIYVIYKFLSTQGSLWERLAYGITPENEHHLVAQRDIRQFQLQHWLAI
# T13 sequence (P35372 whole entry): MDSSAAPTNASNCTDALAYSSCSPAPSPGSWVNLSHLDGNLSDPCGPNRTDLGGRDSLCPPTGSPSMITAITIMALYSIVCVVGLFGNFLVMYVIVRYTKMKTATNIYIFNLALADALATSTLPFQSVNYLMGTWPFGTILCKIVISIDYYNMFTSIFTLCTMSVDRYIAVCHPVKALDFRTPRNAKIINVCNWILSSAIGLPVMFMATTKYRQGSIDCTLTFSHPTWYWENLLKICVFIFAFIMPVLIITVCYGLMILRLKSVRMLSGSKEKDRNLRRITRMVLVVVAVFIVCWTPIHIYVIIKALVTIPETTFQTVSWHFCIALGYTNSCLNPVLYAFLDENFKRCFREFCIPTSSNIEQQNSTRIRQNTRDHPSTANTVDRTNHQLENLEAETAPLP
# T18 sequence (P35367 whole entry): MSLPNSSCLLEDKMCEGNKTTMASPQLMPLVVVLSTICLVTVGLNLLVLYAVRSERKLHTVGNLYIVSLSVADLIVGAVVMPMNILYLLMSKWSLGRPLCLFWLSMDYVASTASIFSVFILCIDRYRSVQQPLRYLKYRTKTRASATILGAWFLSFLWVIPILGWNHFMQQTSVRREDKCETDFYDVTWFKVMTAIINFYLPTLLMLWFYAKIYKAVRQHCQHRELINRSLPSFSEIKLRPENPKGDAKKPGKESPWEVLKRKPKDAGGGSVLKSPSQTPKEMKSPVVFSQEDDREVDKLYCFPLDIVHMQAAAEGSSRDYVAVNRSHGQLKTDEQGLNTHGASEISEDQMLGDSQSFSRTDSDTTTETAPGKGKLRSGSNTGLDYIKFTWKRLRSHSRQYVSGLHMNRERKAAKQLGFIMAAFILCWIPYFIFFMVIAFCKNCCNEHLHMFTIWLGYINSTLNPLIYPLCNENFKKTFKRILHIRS
# T8 sequence (P47898 whole entry): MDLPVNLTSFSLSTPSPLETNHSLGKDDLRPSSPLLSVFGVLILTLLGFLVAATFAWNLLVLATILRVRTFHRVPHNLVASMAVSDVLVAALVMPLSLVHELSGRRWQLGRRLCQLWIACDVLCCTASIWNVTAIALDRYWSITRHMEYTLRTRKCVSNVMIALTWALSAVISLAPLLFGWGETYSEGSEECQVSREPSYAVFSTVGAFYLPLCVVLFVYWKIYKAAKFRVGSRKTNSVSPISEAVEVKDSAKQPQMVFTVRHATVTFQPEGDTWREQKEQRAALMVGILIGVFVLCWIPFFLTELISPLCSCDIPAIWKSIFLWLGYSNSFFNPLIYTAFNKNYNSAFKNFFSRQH
# Ca Channel L-Type, Benzothiazepine, sequence (P22002 whole entry): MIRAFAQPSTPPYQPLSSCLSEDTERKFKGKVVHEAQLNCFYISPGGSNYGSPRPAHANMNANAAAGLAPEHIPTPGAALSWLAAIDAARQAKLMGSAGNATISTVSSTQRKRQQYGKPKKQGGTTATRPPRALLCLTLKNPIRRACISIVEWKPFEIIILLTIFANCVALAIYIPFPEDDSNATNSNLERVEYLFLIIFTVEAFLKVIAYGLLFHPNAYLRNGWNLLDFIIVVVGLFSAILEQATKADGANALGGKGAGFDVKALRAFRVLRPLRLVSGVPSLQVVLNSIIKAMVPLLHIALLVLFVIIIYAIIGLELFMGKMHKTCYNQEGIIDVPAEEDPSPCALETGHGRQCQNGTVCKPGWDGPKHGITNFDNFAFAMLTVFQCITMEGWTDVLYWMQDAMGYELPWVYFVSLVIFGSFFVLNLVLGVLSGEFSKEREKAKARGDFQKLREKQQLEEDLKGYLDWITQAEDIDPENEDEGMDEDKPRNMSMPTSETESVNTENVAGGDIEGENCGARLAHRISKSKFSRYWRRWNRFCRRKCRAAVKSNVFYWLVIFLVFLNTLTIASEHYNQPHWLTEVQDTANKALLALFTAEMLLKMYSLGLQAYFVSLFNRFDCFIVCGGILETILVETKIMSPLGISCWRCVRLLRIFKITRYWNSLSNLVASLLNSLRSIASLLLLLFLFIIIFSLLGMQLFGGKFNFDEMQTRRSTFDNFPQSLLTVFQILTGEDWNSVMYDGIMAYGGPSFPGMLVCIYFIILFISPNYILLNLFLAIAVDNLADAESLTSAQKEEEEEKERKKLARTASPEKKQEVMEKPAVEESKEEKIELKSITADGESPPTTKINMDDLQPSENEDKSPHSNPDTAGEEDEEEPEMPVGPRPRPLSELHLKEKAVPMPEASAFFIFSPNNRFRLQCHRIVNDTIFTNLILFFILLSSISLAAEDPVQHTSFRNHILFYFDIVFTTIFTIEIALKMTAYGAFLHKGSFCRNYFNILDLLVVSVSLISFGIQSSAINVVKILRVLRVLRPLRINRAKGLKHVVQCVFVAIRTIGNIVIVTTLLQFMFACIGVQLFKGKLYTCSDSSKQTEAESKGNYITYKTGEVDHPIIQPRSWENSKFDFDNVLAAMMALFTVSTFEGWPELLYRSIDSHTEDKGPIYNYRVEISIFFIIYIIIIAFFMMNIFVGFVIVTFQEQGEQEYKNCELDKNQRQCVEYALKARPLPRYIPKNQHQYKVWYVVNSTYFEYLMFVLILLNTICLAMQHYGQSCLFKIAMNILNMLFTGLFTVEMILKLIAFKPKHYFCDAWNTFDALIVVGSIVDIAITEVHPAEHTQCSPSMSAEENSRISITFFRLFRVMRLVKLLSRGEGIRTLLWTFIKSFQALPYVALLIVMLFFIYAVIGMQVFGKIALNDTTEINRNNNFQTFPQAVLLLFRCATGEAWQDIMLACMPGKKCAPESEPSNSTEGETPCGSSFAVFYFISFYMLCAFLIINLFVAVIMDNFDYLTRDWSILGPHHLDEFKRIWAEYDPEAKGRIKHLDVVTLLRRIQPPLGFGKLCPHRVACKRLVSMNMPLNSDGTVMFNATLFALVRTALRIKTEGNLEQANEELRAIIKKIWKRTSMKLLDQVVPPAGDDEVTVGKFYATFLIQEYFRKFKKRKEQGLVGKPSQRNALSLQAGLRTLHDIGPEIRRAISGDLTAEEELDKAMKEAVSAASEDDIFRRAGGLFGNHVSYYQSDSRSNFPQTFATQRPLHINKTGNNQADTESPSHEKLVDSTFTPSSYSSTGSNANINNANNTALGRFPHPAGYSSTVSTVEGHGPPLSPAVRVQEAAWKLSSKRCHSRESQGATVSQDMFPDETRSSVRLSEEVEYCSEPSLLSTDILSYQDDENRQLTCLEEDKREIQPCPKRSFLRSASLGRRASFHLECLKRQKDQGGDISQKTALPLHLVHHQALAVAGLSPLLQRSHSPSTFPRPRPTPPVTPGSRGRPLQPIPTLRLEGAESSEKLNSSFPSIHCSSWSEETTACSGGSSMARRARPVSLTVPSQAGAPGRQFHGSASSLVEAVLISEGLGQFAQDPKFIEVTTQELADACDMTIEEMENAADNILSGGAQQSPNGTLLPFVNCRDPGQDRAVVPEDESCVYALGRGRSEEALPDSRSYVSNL
# T4 sequence (P32246 whole entry): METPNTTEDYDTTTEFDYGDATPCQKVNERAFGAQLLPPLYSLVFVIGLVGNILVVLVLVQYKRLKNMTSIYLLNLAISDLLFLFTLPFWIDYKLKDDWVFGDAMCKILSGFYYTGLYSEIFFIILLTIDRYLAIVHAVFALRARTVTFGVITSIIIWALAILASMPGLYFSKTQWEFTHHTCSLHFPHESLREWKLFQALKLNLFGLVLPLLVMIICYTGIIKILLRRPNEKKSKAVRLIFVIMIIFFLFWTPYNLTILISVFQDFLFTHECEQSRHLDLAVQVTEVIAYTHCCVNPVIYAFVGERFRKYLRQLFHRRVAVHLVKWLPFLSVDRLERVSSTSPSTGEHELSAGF
# T7 sequence (P41595 whole entry): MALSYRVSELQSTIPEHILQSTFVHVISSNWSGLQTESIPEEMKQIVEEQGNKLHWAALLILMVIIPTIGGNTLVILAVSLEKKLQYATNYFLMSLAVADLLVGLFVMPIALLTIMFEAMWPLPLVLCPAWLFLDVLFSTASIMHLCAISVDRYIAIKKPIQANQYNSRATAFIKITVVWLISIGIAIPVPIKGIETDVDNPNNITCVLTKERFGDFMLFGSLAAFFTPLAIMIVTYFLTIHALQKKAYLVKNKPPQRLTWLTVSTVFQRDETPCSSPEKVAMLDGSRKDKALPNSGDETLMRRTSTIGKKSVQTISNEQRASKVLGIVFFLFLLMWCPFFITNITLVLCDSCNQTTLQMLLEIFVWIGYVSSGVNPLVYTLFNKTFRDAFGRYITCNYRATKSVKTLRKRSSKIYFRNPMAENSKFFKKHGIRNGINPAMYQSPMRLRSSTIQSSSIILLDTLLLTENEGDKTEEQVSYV
structure (smiles),measurement,setting,value
"O=S(=O)(c1cccc(F)c1)n1ccc2c(N3CCNCC3)nc3ccccc3c21 [FPPQ, 1-[(3-Fluorophenyl)sulfonyl]-4-(piperazin-1-yl)-1H-pyrrolo[3,2-c]quinoline dihydrochloride]",inhibition at 10 µM,[1],27%
same,inhibition at 10 µM,[2],-1%
same,inhibition at 10 µM,[3],-9%
same,inhibition at 10 µM,[4],-6%
same,inhibition at 10 µM,[5],27%
same,inhibition at 10 µM,[6],10%
same,cytochrome P450 inhibition 2D6,[7],< 25% inh at 10 uM
same,agonistic effect at 5-HT2BR,[8],3.6 % inhibition
same,inhibition at 0.01 µM,[9]; 10 nM,-3%
same,inhibition at 1 µM,[9]; 1 μM,46%
same,inhibition at 10 µM,[9],83%
same,inhibition at 10 µM,[9]; additional batch,92%
same,IC50,[10],5.58 µM
same,inhibition at 0.1 µM,"[10]; read-out: %inh, 0.1 μM",1%
same,inhibition at 10 µM,"[10]; read-out: %inh, 10 μM",64%
same,inhibition at 10 µM,[10]; [30],61%
same,inhibition at 100 µM,"[10]; read-out: %inh, 100 μM",98%
same,IC50,[11],1.15 µM
same,inhibition at 10 µM,[12],0%
same,inhibition at 10 µM,[13],35%
same,IC50,[14],0.22 µM
same,Ki,[14],0.11 µM
same,inhibition at 0.01 µM,"[14]; read-out: %inh, 10 nM",5%
same,inhibition at 0.1 µM,"[14]; read-out: %inh, 0.1 μM",32%
same,inhibition at 1 µM,"[14]; read-out: %inh, 1 μM",80%
same,inhibition at 10 µM,"[14]; read-out: %inh, 10 μM",97%
same,inhibition at 10 µM,[14]; [30],98%
same,IC50,[15],7.08 µM
same,inhibition at 0.1 µM,"[15]; read-out: %inh, 0.1 μM",3%
same,inhibition at 10 µM,"[15]; read-out: %inh, 10 μM",59%
same,inhibition at 10 µM,[15]; [30],61%
same,inhibition at 100 µM,"[15]; read-out: %inh, 100 μM",97%
same,IC50,[16],57 µM
same,Ki,[17],0.437 µM
same,inhibition at 10 µM,[18],13%
same,IC50,[19],12 µM
same,IC50,[20],1.25 µM
same,Ki,[20],1.24 µM
same,inhibition at 0.01 µM,"[20]; read-out: %inh, 10 nM",1%
same,inhibition at 0.1 µM,"[20]; read-out: %inh, 0.1 μM",8%
same,inhibition at 1 µM,"[20]; read-out: %inh, 1 μM",42%
same,inhibition at 10 µM,"[20]; read-out: %inh, 10 μM",94%
same,inhibition at 10 µM,[20]; [30],96%
same,inhibition at 10 µM,[21],18%
same,inhibition at 10 µM,[22],43%
same,Ki,[23],0.94 µM
same,IC50,[24],0.46 µM
same,Ki,[24],0.22 µM
same,inhibition at 0.01 µM,"[24]; read-out: %inh, 10 nM",4%
same,inhibition at 0.1 µM,"[24]; read-out: %inh, 0.1 μM",19%
same,inhibition at 1 µM,"[24]; read-out: %inh, 1 μM",67%
same,inhibition at 10 µM,"[24]; read-out: %inh, 10 μM",97%
same,inhibition at 10 µM,[24]; [30],98%
same,inhibition at 10 µM,[25],3%
same,inhibition at 10 µM,[26],7%
same,inhibition at 10 µM,[27],14%
same,inhibition at 10 µM,[28],21%
same,inhibition at 10 µM,[29],21%
